Laboratory results: the supplement of paper PMC11923942

Legend:
[1] = GC retention time (DB-5MS, GC-APCI); higher = later elution
Protocol: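 Standards of hydrophobic organic contaminants were analysed by GC-APCI (positive mode, dry or wet source conditions) coupled to cyclic ion mobility-QTOF MS. CCS was measured for the base ion (sometimes a fragment ion) in N2 drift gas (one-pass mode, calibrated with a Waters 22-compound mix). 5 mL/min).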

[2] = collision cross section (N2, base ion); higher = larger ion cross section
Protocol: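 Standards of hydrophobic organic contaminants were analysed by GC-APCI (positive mode, dry or wet source conditions) coupled to cyclic ion mobility-QTOF MS. CCS was measured for the base ion (sometimes a fragment ion) in N2 drift gas (one-pass mode, calibrated with a Waters 22-compound mix).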

SMILES	GC retention time [1] [min]	collision cross section [2] [Å²]
Clc1ccc(Cl)c(Cl)c1Cl [1,2,3,4-Tetrachlorobenzene] (APCI source condition: Dry, base ion: M+.)	9.99	135.67
Brc1cc(Br)c(OCCOc2c(Br)cc(Br)cc2Br)c(Br)c1 [1,2-Bis(2,4,6-tribromophenoxy)ethane] (APCI source condition: Dry, base ion: M+.)	29	186.57
C=CCOc1c(Br)cc(Br)cc1Br [1,3,5-Tribromo-2-prop-2-enoxybenzene] (APCI source condition: Dry, base ion: [M-Br]+)	15.2	136.27
CCCCCCCCCCCCCCCCC(F)(F)C(F)(F)C(F)(F)C(F)(F)C(F)(F)C(F)(F)C(F)(F)C(F)(F)C(F)(F)C(F)(F)F [1-(Henicosafluorodecyl)hexadecane] (APCI source condition: Dry, base ion: [M-H]+)	17.6	241.65
CCCCCCCCCCCCCCCCC(F)(F)C(F)(F)C(F)(F)C(F)(F)C(F)(F)C(F)(F)C(F)(F)C(F)(F)F [1-(Perfluoro-n-octyl)hexadecane] (APCI source condition: Dry, base ion: [M-H]+)	16.8	226.94
CCCCCCCCCCCCCCC=CC(F)(F)C(F)(F)C(F)(F)C(F)(F)C(F)(F)C(F)(F)C(F)(F)C(F)(F)C(F)(F)C(F)(F)C(F)(F)C(F)(F)F [1-(Perfluorododecyl)-hexadec-1-ene] (APCI source condition: Dry, base ion: [M-H]+)	18	255.25
CCCCCCCCCCCCCCCCC(F)(F)C(F)(F)C(F)(F)C(F)(F)C(F)(F)C(F)(F)C(F)(F)C(F)(F)C(F)(F)C(F)(F)C(F)(F)C(F)(F)F [1-(Perfluorododecyl)hexadecane] (APCI source condition: Dry, base ion: [M-H]+)	18.4	256.66
CCCCCCCCCCCCCCC(F)(F)C(F)(F)C(F)(F)C(F)(F)C(F)(F)C(F)(F)C(F)(F)C(F)(F)C(F)(F)C(F)(F)C(F)(F)C(F)(F)F [1-(Perfluorododecyl)tetradecane] (APCI source condition: Dry, base ion: [M-H]+)	16.7	250.16
Clc1ccc(C(c2ccccc2Cl)C(Cl)Cl)cc1 (centres undefined) [2,4'-DDD] (APCI source condition: Dry, base ion: [M-CHCl2]+)	19.4	140.45
ClC(Cl)=C(c1ccc(Cl)cc1)c1ccccc1Cl [2,4'-DDE] (APCI source condition: Dry, base ion: M+.)	18.7	154.54
Clc1ccc(C(c2ccccc2Cl)C(Cl)(Cl)Cl)cc1 (centres undefined) [2,4'-DDT] (APCI source condition: Dry, base ion: [M-CCl3]+)	20.2	140.36
C=C(Br)COc1c(Br)cc(Br)cc1Br [2-Bromoallyl 2,4,6-tribromophenyl ether] (APCI source condition: Dry, base ion: [M-Br]+)	18.2	143.35
CCCCC(CC)COP(=O)(Oc1ccccc1)Oc1ccccc1 (centres undefined) [2-Ethylhexyl diphenyl phosphate] (APCI source condition: Wet, base ion: [M-C8H15]+)	21.3	149.25
CCCCC(CC)COC(=O)c1cc(Br)c(Br)c(Br)c1Br (centres undefined) [2-Ethylhexyl-2,3,4,5-tetrabromobenzoate] (APCI source condition: Dry, base ion: C7H3Br4O2+)	24.2	141.48
Clc1ccc(C(c2ccc(Cl)cc2)C(Cl)Cl)cc1 [4,4'-DDD] (APCI source condition: Dry, base ion: [M-CHCl2]+)	20.1	142.2
ClC(Cl)=C(c1ccc(Cl)cc1)c1ccc(Cl)cc1 [4,4'-DDE] (APCI source condition: Dry, base ion: M+.)	19.3	159.06
Clc1ccc(C(c2ccc(Cl)cc2)C(Cl)(Cl)Cl)cc1 [4,4'-DDT] (APCI source condition: Dry, base ion: [M-CCl3]+)	20.8	140.31
c1ccc2cc3ccccc3cc2c1 [Anthracene] (APCI source condition: Dry, base ion: M+.)	15.7	138
c1ccc2cc3c(ccc4ccccc43)cc2c1 [Benzo(a)anthracene] (APCI source condition: Dry, base ion: M+.)	21.8	140.47
c1ccc2c(c1)cc1ccc3cccc4ccc2c1c34 [Benzo(a)pyrene] (APCI source condition: Dry, base ion: M+.)	24.8	143.28

SMILES	GC retention time [1] [min]	collision cross section [2] [Å²]
c1ccc2c(c1)-c1cccc3c1c-2cc1ccccc13 [Benzo(b)fluoranthene] (APCI source condition: Dry, base ion: M+.)	24.2	145.46
c1ccc2c(c1)ccc1ccc3ccccc3c12 [Benzo(c)phenanthrene] (APCI source condition: Dry, base ion: M+.)	21.3	140.99
c1ccc2c(c1)c1cccc3ccc4cccc2c4c31 [Benzo(e)pyrene] (APCI source condition: Dry, base ion: M+.)	24.7	142.88
c1cc2ccc3ccc4ccc5cccc6c(c1)c2c3c4c56 [Benzo(g,h,i)perylene] (APCI source condition: Dry, base ion: M+.)	27.1	150.71
c1ccc2cc3c(cc2c1)-c1cccc2cccc-3c12 [Benzo(k)fluoranthene] (APCI source condition: Dry, base ion: M+.)	24.2	145.45
CCCCC(CC)COC(=O)c1c(Br)c(Br)c(Br)c(Br)c1C(=O)OCC(CC)CCCC (centres undefined) [Bis(2-ethylhexyl) tetrabromophthalate] (APCI source condition: Dry, base ion: C8HBr4O3+)	30.1	141.58
c1ccc2c(c1)ccc1c3ccccc3ccc21 [Chrysene] (APCI source condition: Dry, base ion: M+.)	21.9	141.28
c1ccc2c(c1)ccc1cc3c(ccc4ccccc43)cc12 [Dibenzo(a,h)anthracene] (APCI source condition: Dry, base ion: M+.)	27.2	154.91
c1ccc2c(c1)sc1ccccc12 [Dibenzothiophene] (APCI source condition: Dry, base ion: M+.)	15.2	137.55
ClC1=C(Cl)[C@]2(Cl)[C@@H]3[C@@H]4C[C@@H]([C@H]5O[C@@H]45)[C@@H]3[C@@]1(Cl)C2(Cl)Cl [Dieldrin] (APCI source condition: Dry, base ion: M+.)	19.8	151.16
ClC1=C(Cl)C2(Cl)C3C4CC(C5OC45)C3C1(Cl)C2(Cl)Cl (centres undefined) [Endrin] (APCI source condition: Wet, base ion: [M+H]+)	19.4	157.95
c1ccc2c(c1)-c1cccc3cccc-2c13 [Fluoranthene] (APCI source condition: Dry, base ion: M+.)	18.4	138.02
ClC1=C(Cl)C2(Cl)[C@H]3[C@@H]4O[C@@H]4[C@H](Cl)[C@H]3C1(Cl)C2(Cl)Cl (stereo partly drawn) [Heptachlor-exo-epoxide] (APCI source condition: Dry, base ion: [M-H]+)	18.2	151.86
ClC1=C(Cl)C2(Cl)C3C(Cl)C=CC3C1(Cl)C2(Cl)Cl (centres undefined) [Heptachlor] (APCI source condition: Dry, base ion: [M-H]+)	16.7	157.41
Brc1c(Br)c(Br)c(Br)c(Br)c1Br [Hexabromobenzene] (APCI source condition: Dry, base ion: M+.)	21.8	135.29
Clc1c(Cl)c(Cl)c(Cl)c(Cl)c1Cl [Hexachlorobenzene] (APCI source condition: Dry, base ion: M+.)	14.6	135.29
ClC1CCCC(Br)(Br)C(Cl)(C2=CCCC2)C(Cl)(Cl)C1(Cl)Cl (centres undefined) [Hexachlorocyclopentenyl-dibromocyclooctane] (APCI source condition: Dry, base ion: [M-CH4Cl2Br]+)	24.4	152.06
c1ccc2c(c1)-c1ccc3ccc4cccc5cc-2c1c3c45 [Indeno(1,2,3-cd)pyrene] (APCI source condition: Dry, base ion: M+.)	27.7	148.24
ClC1=C(Cl)[C@]2(Cl)[C@H]3[C@H]([C@H]4C=C[C@@H]3C4)[C@@]1(Cl)C2(Cl)Cl [Isodrin] (APCI source condition: Dry, base ion: M+.)	18	150.98
Clc1c(Cl)c(Cl)c(-c2c(Cl)c(Cl)c(Cl)c(Cl)c2Cl)c(Cl)c1Cl [PCB 209] (APCI source condition: Dry, base ion: M+.)		179.93
